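In this assay, cells in 96-well plates receive the compound at five concentrations for 48 hours. Endpoints are linearly interpolated between the surrounding concentrations. Abbreviation: GI50, concentration required for 50% inhibition of growth.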 Active and inactive are the calls of the source. Rule as the data show it: active = GI50 up to about 1.1 µM and inactive = higher.
Assays:
Test in all cases: NCI-60 cell line screen, 48 h
[1] = test system: SW-620
[2] = test system: Malme-3M
[3] = test system: COLO 205
[4] = test system: NCI-H522
[5] = test system: SK-MEL-5
[6] = test system: NCI-H460
[7] = test system: UO-31
[8] = test system: OVCAR-8
[9] = test system: SNB-19
[10] = test system: NCI-H226
[11] = test system: OVCAR-4
[12] = test system: SF-295
[13] = test system: U-251
[14] = test system: OVCAR-3
[15] = test system: SF-268
[16] = test system: A549
[17] = test system: UACC-62
[18] = test system: SN12C
[19] = test system: HCC 2998
[20] = test system: EKVX

Measured: GI50

O=C1C[C@@H]2[C@@H](C=CC23CCCC3)N1O
inactive: [1] > 100 µM | [2] > 100 µM | [3] > 100 µM | [4] > 100 µM | [5] > 100 µM | [6] > 100 µM | [7] > 100 µM | [8] > 100 µM | [9] > 100 µM | [10] > 100 µM | [11] > 100 µM | [12] > 100 µM | [13] > 100 µM | [14] > 100 µM | [15] > 100 µM | [16] > 100 µM | [17] > 100 µM | [18] > 100 µM | [19] > 100 µM | [20] > 100 µM

NC(CCCCO)C(=O)O (centres undefined)
inactive: [1] > 100 µM | [2] > 100 µM | [3] > 100 µM | [4] > 100 µM | [5] > 100 µM | [6] > 100 µM | [7] > 100 µM | [8] > 100 µM | [9] > 100 µM | [10] > 100 µM | [11] > 100 µM | [12] > 100 µM | [13] > 100 µM | [14] > 100 µM | [15] > 100 µM | [16] > 100 µM | [17] > 100 µM | [19] > 100 µM | [20] > 100 µM

Cc1ccn2c(=O)cc(-c3ccccc3)nc2c1
inactive: [1] > 100 µM | [2] > 100 µM | [3] > 100 µM | [4] 55.2 µM | [5] > 100 µM | [6] > 100 µM | [8] > 100 µM | [9] > 100 µM | [10] > 100 µM | [11] > 100 µM | [12] > 100 µM | [13] > 100 µM | [14] > 100 µM | [15] > 100 µM | [16] > 100 µM | [17] 18.7 µM | [18] 93.8 µM | [19] > 100 µM | [20] 44.7 µM

O=C1Nc2ccccc2[C@]12C[C@H]2c1ccccn1
inactive: [1] > 100 µM | [2] > 100 µM | [3] > 100 µM | [4] > 100 µM | [5] > 100 µM | [6] > 100 µM | [7] > 100 µM | [9] > 100 µM | [10] 62.8 µM | [11] > 100 µM | [12] > 100 µM | [13] > 100 µM | [14] > 100 µM | [15] > 100 µM | [16] > 100 µM | [17] > 100 µM | [18] > 100 µM | [19] > 100 µM | [20] > 100 µM

CC(C)OP(=O)(OC(C)C)/C(=N/Nc1ccc([N+](=O)[O-])cc1)Nc1ccc(N/C(=N\Nc2ccc([N+](=O)[O-])cc2)P(=O)(OC(C)C)OC(C)C)cc1
inactive: [2] > 100 µM | [3] 5.2 µM | [4] 6.22 µM | [5] 6.98 µM | [6] 2.31 µM | [7] 21.4 µM | [8] 13.6 µM | [9] 27.4 µM | [10] 74.1 µM | [11] 35.7 µM | [13] 13.2 µM | [14] 70.1 µM | [15] > 100 µM | [16] 4.91 µM | [17] 2.2 µM | [18] > 100 µM | [19] 2.65 µM | [20] 26.9 µM

COc1ccc2nc(-c3ccc(N)cc3)sc2c1
inactive: [1] > 100 µM | [2] > 100 µM | [3] > 100 µM | [4] 23.6 µM | [5] 61.4 µM | [6] 54 µM | [7] 29.4 µM | [8] 52.5 µM | [9] 18.5 µM | [10] 34.2 µM | [11] > 100 µM | [12] 43.1 µM | [13] 35.6 µM | [14] > 100 µM | [15] 63.2 µM | [16] 68.1 µM | [17] > 100 µM | [19] 42 µM | [20] 32.1 µM

C[C@@]12[Se]c3ccccc3[C@]1(C)[Se]c1ccccc12
inactive: [1] 3.27 µM | [2] > 100 µM | [3] 3.73 µM | [4] 4.05 µM | [5] 4.21 µM | [8] > 100 µM | [10] > 100 µM | [11] 68.2 µM | [12] 38.7 µM | [13] 54.6 µM | [14] > 100 µM | [15] > 100 µM | [17] 2.23 µM | [18] > 100 µM | [19] 6.47 µM | [20] > 100 µM

O=C1CCC2=C(CCC2)N1CCc1ccc2c(c1)OCO2
inactive: [1] > 100 µM | [2] > 100 µM | [3] 60.3 µM | [4] 61.1 µM | [5] 24.5 µM | [6] 48.2 µM | [7] 21.6 µM | [8] > 10 µM | [9] 81.7 µM | [10] 20.5 µM | [11] > 100 µM | [12] 55.3 µM | [13] 45.7 µM | [15] 77.6 µM | [16] 62.1 µM | [17] 65 µM | [18] 95.1 µM | [19] > 100 µM | [20] 47 µM

CCOC(=O)N1c2ccccc2C(C)=CC(C)C1C (centres undefined)
inactive: [1] 29.4 µM | [2] 33.9 µM | [3] 29.2 µM | [4] 18.7 µM | [5] 12.5 µM | [6] 21.4 µM | [7] 55.7 µM | [8] 17.6 µM | [9] 42.8 µM | [10] 22.8 µM | [11] 60.5 µM | [12] 23.9 µM | [14] 16.7 µM | [15] 38 µM | [16] 22.6 µM | [17] 32.6 µM | [18] 40.7 µM | [19] 45.6 µM | [20] 35.3 µM

CCCCNC(=S)Nc1nc(C(=O)NNC(=S)NC2CCCCC2)cs1
inactive: [1] > 100 µM | [2] > 100 µM | [3] > 100 µM | [4] > 100 µM | [5] 67.6 µM | [7] 45.6 µM | [8] 69.3 µM | [10] > 100 µM | [11] > 100 µM | [12] > 100 µM | [13] 91.4 µM | [14] 91.8 µM | [15] > 100 µM | [16] > 100 µM | [17] > 100 µM | [18] > 100 µM | [19] > 100 µM | [20] > 100 µM

Oc1c(C(Nc2cccc3cccnc23)c2ccccc2)ccc2cccnc12 (centres undefined)
inactive: [1] 4.05 µM | [2] 3.49 µM | [3] 6.25 µM | [4] 16.8 µM | [6] 3.33 µM | [7] 4.11 µM | [8] 3.72 µM | [9] 4.69 µM | [10] 1.73 µM | [11] 17.5 µM | [12] 3.87 µM | [14] 5.77 µM | [15] 4.21 µM | [16] 6.04 µM | [17] 21.6 µM | [18] 9.48 µM | [19] 14.2 µM | [20] 4.84 µM
